What was measured:
Assay in all cases: KinaseProfiler kinase assay
Assay type in all cases: biochemical
Met(Y1248D)(h) = Met(Y1248D)(h) (Homo sapiens, UniProt P08581, Y1230D)
Outline: (§1)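 Compounds were serially diluted from DMSO into 20 mM MOPS buffer with EDTA, Brij-35, glycerol, β-mercaptoethanol and 1 mg/mL BSA. Reactions started with MgATP/[γ-33P]ATP, ran 40 min at room temperature, and phosphorylation was measured by scintillation counting after filtermat capture.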

DAPK1(h) = DAPK1(h) (Homo sapiens, UniProt P53355)
Outline: as §1

Rsk2(h) = Rsk2(h) (Homo sapiens, UniProt P51812)
Outline: as §1

TLK2(h) = TLK2(h) (Homo sapiens, UniProt Q86UE8)
Outline: as §1

JNK1α1(h) = JNK1α1(h) (Homo sapiens, UniProt P45983)
Outline: as §1

EphA7(h) = EphA7(h) (Homo sapiens, UniProt Q15375)
Outline: as §1

PIP4K2α(h) = PIP4K2α(h) (Homo sapiens, UniProt P48426)
Outline: as §1

[1] = target: PI3 Kinase (p110α/p85α)(h) (Homo sapiens, UniProt P42336)
Outline: as §1

Mnk2(h) = Mnk2(h) (Homo sapiens, UniProt Q9HBH9)
Outline: as §1

[2] = target: PI3 Kinase (p110α(E545K)/p85α)(h) (Homo sapiens, UniProt P42336, E545K)
Outline: as §1

SRPK1(h) = SRPK1(h) (Homo sapiens, UniProt Q96SB4)
Outline: as §1

Mer(h) = Mer(h) (Homo sapiens, UniProt Q12866)
Outline: as §1

HIPK1(h) = HIPK1(h) (Homo sapiens, UniProt Q86Z02)
Outline: as §1

SIK(h) = SIK(h) (Homo sapiens, UniProt P57059)
Outline: as §1

Lck(h) activated = Lck(h) activated (Homo sapiens, UniProt P06239)
Outline: as §1

ULK2(h) = ULK2(h) (Homo sapiens, UniProt Q8IYT8)
Outline: as §1

TGFBR1(h) = TGFBR1(h) (Homo sapiens, UniProt P36897)
Outline: as §1

PI3KC2γ(h) = PI3KC2γ(h) (Homo sapiens, UniProt O75747)
Outline: as §1

PKA(h) = PKA(h) (Homo sapiens, UniProt P17612)
Outline: as §1

PKD2(h) = PKD2(h) (Homo sapiens, UniProt Q9BZL6)
Outline: as §1

MRCKβ(h) = MRCKβ(h) (Homo sapiens, UniProt Q9Y5S2)
Outline: as §1

Fms(h) = Fms(h) (Homo sapiens, UniProt P07333)
Outline: as §1

Tie2 (h) = Tie2 (h) (Homo sapiens, UniProt Q02763)
Outline: as §1

cKit(V654A)(h) = cKit(V654A)(h) (Homo sapiens, UniProt P10721, V654A)
Outline: as §1

Blk(m) = Blk(m) (Mus musculus, UniProt P16277)
Outline: as §1

MKK6(h) = MKK6(h) (Homo sapiens, UniProt P52564)
Outline: as §1

BrSK2(h) = BrSK2(h) (Homo sapiens, UniProt Q8IWQ3)
Outline: as §1

Arg(m) = Arg(m) (Mus musculus, UniProt Q4JIM5)
Outline: as §1

MRCKα(h) = MRCKα(h) (Homo sapiens, UniProt Q5VT25)
Outline: as §1

BTK(R28H)(h) = BTK(R28H)(h) (Homo sapiens, UniProt Q06187, R28H)
Outline: as §1

CDK2/cyclinE(h) = CDK2/cyclinE(h) (Homo sapiens, UniProt P24941)
Outline: as §1

Blk(m), sequence (P16277 whole entry): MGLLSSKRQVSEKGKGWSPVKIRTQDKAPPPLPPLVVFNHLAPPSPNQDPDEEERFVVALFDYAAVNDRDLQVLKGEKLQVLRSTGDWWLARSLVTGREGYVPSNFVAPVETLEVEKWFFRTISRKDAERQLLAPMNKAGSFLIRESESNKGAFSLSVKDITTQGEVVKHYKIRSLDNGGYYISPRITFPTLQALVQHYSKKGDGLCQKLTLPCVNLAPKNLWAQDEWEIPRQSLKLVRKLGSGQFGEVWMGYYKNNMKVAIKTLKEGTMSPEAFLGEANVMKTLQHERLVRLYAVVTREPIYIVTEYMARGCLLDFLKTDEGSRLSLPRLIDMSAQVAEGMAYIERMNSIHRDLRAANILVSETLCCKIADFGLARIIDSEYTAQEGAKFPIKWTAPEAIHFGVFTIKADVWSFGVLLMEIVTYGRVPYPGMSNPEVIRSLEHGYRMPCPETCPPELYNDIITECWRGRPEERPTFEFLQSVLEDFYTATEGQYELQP
EphA7(h), sequence (Q15375 28-998): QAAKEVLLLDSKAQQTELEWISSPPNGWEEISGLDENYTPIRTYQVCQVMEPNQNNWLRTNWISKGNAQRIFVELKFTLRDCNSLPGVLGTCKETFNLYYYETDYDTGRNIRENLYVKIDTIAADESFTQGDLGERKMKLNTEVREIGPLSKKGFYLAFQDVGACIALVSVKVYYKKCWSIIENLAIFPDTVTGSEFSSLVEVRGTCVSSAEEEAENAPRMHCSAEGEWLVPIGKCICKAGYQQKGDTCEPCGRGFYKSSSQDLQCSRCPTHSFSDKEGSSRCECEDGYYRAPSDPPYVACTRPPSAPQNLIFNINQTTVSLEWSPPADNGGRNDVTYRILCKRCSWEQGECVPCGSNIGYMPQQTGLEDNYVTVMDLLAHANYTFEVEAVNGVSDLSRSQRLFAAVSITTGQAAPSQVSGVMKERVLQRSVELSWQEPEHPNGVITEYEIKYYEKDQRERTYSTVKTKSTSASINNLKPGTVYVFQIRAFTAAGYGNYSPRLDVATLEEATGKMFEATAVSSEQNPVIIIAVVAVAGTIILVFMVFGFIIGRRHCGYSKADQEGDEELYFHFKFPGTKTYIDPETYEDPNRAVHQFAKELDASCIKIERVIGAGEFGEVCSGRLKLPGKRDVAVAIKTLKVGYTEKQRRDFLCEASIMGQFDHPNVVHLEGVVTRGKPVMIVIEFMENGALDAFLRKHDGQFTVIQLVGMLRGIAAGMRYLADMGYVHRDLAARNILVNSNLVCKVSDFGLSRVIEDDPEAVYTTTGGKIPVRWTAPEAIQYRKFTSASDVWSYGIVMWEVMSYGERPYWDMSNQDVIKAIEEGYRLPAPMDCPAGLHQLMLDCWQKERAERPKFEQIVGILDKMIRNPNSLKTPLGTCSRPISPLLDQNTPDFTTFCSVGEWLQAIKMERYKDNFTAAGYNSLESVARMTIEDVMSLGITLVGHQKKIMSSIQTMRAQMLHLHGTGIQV
PKD2(h), sequence (Q9BZL6 whole entry): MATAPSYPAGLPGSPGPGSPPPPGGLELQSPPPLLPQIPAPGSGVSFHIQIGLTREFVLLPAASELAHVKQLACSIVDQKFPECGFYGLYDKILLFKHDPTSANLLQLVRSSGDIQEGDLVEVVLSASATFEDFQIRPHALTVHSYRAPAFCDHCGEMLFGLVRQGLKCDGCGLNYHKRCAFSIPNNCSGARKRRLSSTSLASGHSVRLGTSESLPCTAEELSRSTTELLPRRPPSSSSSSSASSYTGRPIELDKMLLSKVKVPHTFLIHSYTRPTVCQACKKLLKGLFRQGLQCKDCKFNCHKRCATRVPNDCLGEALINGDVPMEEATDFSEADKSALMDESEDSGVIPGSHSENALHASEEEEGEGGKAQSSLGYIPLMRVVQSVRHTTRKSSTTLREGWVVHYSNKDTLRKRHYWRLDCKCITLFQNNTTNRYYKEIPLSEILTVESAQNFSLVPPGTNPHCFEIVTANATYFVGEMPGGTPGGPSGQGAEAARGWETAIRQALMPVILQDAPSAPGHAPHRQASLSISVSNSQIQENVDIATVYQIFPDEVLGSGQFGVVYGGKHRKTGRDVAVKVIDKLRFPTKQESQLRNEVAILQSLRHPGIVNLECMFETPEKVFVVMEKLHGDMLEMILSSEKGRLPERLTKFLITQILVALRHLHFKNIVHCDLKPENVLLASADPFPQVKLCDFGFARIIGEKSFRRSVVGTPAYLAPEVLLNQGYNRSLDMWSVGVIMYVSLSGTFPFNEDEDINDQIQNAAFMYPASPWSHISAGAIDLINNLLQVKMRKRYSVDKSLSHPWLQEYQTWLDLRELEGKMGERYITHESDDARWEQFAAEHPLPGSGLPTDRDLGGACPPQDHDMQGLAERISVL
DAPK1(h), sequence (P53355 whole entry): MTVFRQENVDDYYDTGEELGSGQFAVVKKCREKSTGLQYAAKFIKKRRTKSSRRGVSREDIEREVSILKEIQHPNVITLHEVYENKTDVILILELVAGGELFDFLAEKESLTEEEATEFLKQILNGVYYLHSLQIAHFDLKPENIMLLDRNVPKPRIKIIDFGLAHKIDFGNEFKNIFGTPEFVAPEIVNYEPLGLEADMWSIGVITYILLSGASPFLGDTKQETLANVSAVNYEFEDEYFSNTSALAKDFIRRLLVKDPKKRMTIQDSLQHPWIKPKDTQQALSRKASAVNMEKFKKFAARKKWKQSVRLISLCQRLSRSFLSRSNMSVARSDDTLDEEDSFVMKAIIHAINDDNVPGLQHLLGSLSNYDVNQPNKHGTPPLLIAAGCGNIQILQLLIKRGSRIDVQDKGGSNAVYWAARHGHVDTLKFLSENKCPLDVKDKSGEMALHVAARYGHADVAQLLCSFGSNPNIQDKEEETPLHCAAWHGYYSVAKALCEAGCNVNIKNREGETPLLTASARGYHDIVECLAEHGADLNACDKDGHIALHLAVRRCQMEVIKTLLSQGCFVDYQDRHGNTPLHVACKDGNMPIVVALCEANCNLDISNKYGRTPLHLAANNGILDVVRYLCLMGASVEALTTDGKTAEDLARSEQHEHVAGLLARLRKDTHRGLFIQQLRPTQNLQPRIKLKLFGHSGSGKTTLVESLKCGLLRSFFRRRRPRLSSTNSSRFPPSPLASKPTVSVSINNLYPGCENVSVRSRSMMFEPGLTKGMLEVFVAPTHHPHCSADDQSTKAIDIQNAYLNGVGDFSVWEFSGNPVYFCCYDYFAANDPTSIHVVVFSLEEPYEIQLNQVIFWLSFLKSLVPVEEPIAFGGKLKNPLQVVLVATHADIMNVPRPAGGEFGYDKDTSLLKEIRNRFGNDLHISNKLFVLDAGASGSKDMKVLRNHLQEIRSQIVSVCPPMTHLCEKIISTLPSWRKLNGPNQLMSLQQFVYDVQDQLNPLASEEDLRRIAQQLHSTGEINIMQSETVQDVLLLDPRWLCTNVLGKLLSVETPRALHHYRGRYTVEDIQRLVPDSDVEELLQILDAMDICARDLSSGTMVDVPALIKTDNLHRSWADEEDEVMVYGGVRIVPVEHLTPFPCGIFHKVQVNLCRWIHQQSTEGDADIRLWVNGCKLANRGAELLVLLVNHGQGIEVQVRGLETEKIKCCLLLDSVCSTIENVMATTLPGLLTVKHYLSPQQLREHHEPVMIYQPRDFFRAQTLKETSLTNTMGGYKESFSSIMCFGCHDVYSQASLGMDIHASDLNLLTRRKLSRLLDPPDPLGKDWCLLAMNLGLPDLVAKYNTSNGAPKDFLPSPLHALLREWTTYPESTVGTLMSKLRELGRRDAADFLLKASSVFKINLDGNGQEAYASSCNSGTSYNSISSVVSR
SIK(h), sequence (P57059 whole entry): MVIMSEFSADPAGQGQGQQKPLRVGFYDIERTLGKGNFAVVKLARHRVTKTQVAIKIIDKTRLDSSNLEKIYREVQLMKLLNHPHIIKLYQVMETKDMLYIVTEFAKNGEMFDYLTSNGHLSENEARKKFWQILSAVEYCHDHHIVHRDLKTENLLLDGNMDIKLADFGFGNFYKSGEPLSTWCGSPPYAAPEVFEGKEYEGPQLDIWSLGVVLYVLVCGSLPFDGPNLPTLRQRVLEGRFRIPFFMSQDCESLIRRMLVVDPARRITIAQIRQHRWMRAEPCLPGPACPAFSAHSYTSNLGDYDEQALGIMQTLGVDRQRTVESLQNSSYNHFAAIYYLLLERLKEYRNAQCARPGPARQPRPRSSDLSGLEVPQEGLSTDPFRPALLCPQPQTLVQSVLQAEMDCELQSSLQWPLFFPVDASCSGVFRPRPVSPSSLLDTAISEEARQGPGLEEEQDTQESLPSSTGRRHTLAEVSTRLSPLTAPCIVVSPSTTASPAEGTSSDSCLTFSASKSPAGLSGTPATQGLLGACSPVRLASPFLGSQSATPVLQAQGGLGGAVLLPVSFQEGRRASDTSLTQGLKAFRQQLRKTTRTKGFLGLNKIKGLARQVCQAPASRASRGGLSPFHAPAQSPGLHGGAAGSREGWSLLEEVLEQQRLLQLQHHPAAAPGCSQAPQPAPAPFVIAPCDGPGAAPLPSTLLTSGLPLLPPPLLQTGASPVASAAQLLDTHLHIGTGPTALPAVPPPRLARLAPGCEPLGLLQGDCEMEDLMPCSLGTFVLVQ
Mnk2(h), sequence (Q9HBH9 whole entry): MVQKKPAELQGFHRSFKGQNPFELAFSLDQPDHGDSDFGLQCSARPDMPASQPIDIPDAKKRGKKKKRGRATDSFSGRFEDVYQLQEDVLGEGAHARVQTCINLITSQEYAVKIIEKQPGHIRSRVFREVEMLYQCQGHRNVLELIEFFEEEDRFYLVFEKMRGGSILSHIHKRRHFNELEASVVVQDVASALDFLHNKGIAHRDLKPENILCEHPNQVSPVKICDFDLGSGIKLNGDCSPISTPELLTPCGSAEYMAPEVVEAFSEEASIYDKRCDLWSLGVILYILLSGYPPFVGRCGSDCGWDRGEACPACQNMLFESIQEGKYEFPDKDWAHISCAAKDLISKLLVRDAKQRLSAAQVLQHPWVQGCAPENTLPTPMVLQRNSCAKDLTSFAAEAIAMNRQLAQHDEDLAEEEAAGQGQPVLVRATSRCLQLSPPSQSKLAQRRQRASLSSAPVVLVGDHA

Row | Compound | inhibition at 0.1 µM (Met(Y1248D)(h)) [%] | inhibition at 0.1 µM (DAPK1(h)) [%] | inhibition at 0.1 µM (Rsk2(h)) [%] | inhibition at 0.1 µM (TLK2(h)) [%] | inhibition at 0.1 µM (JNK1α1(h)) [%] | inhibition at 0.1 µM (EphA7(h)) [%] | inhibition at 0.1 µM (PIP4K2α(h)) [%] | inhibition at 0.1 µM [1] [%] | inhibition at 0.1 µM (Mnk2(h)) [%] | inhibition at 0.1 µM [2] [%] | inhibition at 0.1 µM (SRPK1(h)) [%] | inhibition at 0.1 µM (Mer(h)) [%] | inhibition at 0.1 µM (HIPK1(h)) [%] | inhibition at 0.1 µM (SIK(h)) [%] | inhibition at 0.1 µM (Lck(h) activated) [%] | inhibition at 0.1 µM (ULK2(h)) [%] | inhibition at 0.1 µM (TGFBR1(h)) [%] | inhibition at 0.1 µM (PI3KC2γ(h)) [%] | inhibition at 0.1 µM (PKA(h)) [%] | inhibition at 0.1 µM (PKD2(h)) [%] | other results
1 | Cc1cc2c(F)c(Oc3nc(Nc4cc(C5CC5)[nH]n4)cc(N4CCN(C)CC4)n3)ccc2[nH]1 [Compound 10] | 80 | 0 | 37 | 69 | -7 | 23 | 1 | -1 | 1 | -2 | -11 | 97 | -6 | 50 | 97 | 37 | 66 | 27 | 2 | -5 | inhibition at 0.1 µM (MRCKβ(h)): -6%; inhibition at 0.1 µM (Fms(h)): 91%; inhibition at 0.1 µM (Tie2 (h)): 100%; inhibition at 0.1 µM (cKit(V654A)(h)): 35%; inhibition at 0.1 µM (Blk(m)): 84%; inhibition at 0.1 µM (MKK6(h)): -5%; inhibition at 0.1 µM (BrSK2(h)): 60%; inhibition at 0.1 µM (Arg(m)): 99%; inhibition at 0.1 µM (MRCKα(h)): 2%; inhibition at 0.1 µM (BTK(R28H)(h)): 10%; inhibition at 0.1 µM (CDK2/cyclinE(h)): 1%
2 | Cc1cc2c(F)c(Oc3nc(Nc4cc(C5CC5)[nH]n4)cc(N4CCNCC4)n3)ccc2[nH]1 [Compound 11, N-(5-cyclopropyl-1H-pyrazol-3-yl)-2-((4-fluoro-2-methyl-1H-indol-5-yl)oxy)-6-(piperazin-1-yl)pyrimidin-4-amine] | 76 | 3 | 7 | 70 | 11 | 34 | -4 | 5 | -2 | 2 | -14 | 96 | -12 | 56 | 100 | 30 | 47 | -2 | -12 | -1 | inhibition at 0.1 µM (MRCKβ(h)): -16%; inhibition at 0.1 µM (Fms(h)): 95%; inhibition at 0.1 µM (Tie2 (h)): 98%; inhibition at 0.1 µM (cKit(V654A)(h)): 53%; inhibition at 0.1 µM (Blk(m)): 93%; inhibition at 0.1 µM (MKK6(h)): -13%; inhibition at 0.1 µM (BrSK2(h)): 48%; inhibition at 0.1 µM (Arg(m)): 102%; inhibition at 0.1 µM (MRCKα(h)): -3%; inhibition at 0.1 µM (BTK(R28H)(h)): -7%; inhibition at 0.1 µM (CDK2/cyclinE(h)): 3%

From patent publication US10245261B2, “Substituted indol-5-ol derivatives and their therapeutic applications” (NantBioScience, Inc., priority 2013, dated 2019)
